Patent publication US20240343704A1, “HALO-SUBSTITUTED AMINO PYRIDINE COMPOUNDS AS INHIBITORS OF THE HAEMATOPOIETIC PROGENITOR KINASE 1 (HPK1)” (priority 2021, published 2024)

Each compound was assayed against T1, Recombinant (1-346) HPK1 (h) (Homo sapiens, UniProt Q92918) (assay: HPK1 Human STE Kinase Enzymatic Radiometric Assay). Settings: read-out: HPK1 IC50 nM Range*.
T1 construct: Recombinant (1-346) HPK1 (h) is incubated with 8 mM MOPS pH 7.0
T1 sequence (Q92918 1-346): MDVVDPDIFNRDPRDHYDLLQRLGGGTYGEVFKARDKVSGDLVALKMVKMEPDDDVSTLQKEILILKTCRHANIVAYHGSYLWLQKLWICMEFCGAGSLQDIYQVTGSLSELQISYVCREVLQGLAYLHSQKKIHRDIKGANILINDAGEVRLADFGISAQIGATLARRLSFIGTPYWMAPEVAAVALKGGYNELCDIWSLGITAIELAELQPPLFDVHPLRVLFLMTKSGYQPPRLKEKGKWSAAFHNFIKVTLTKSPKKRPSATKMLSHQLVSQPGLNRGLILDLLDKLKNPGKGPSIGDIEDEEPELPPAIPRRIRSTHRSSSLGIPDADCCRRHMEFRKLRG
Type: biochemical
Procedure: A stock solution of 10 mM of test compound is prepared in DMSO. The compound plate was prepared by 3-fold and 9-point serial dilutions. […] The reaction is initiated by The addition of the Mg/ATP mix. After incubation for 40 minutes at RT, the reaction is stopped by the addition of phosphoric acid to a concentration of 0.5%.

SMILES	IC50
Nc1nc(F)c(-c2ccc(N3CCOCC3)c(CN3CCCC3)c2)cc1-c1cc2c(cc1F)C(=O)NCC2 [I-492, 6-(2-amino-6-fluoro-5-(4-morpholino-3-(pyrrolidin-1-ylmethyl)phenyl)pyridin-3-yl)-7-fluoro-3,4-dihydroisoquinolin-1(2H)-one]	11 to 100 nM
CN(C)Cc1cc(-c2cc(-c3ccc4c(c3)CCNC4=O)c(N)nc2F)ccc1N1CCS(=O)(=O)CC1 [I-493, 6-(2-amino-5-(3-((dimethylamino)methyl)-4-(1,1-dioxidothiomorpholino)phenyl)-6-fluoropyridin-3-yl)-3,4-dihydroisoquinolin-1(2H)-one]	11 to 100 nM
CN(C)Cc1cc(-c2cc(-c3cc4c(cc3F)C(=O)NCC4)c(N)nc2F)ccc1N1CCN(C2CC2)CC1 [I-494, 6-(2-amino-5-(4-(4-cyclopropylpiperazin-1-yl)-3-((dimethylamino)methyl)phenyl)-6-fluoropyridin-3-yl)-7-fluoro-3,4-dihydroisoquinolin-1(2H)-one]	11 to 100 nM
CN(C)Cc1cc(-c2cc(-c3ccc4c(c3)CCNC4=O)c(N)nc2F)ccc1N1CCN(C2CC2)CC1 [I-495, 6-(2-amino-5-(4-(4-cyclopropylpiperazin-1-yl)-3-((dimethylamino)methyl)phenyl)-6-fluoropyridin-3-yl)-3,4-dihydroisoquinolin-1(2H)-one]	11 to 100 nM
Nc1nc(F)c(-c2ccc(N3CCOCC3)c(CN3CCOCC3)c2)cc1-c1ccc2c(c1)CCNC2=O [I-496, 6-(2-amino-6-fluoro-5-(4-morpholino-3-(morpholinomethyl)phenyl)pyridin-3-yl)-3,4-dihydroisoquinolin-1(2H)-one]	11 to 100 nM
Nc1nc(F)c(-c2ccc(N3CCOCC3)c(CN3CCOCC3)c2)cc1-c1cc2c(cc1F)C(=O)NCC2 [I-497, 6-(2-amino-6-fluoro-5-(4-morpholino-3-(morpholinomethyl)phenyl)pyridin-3-yl)-7-fluoro-3,4-dihydroisoquinolin-1(2H)-one]	11 to 100 nM
CN(C)Cc1cc(-c2cc(-c3cc4c(cc3F)C(=O)NCC4)c(N)nc2F)ccc1N1CCS(=O)(=O)CC1 [I-498, 6-(2-amino-5-(3-((dimethylamino)methyl)-4-(1,1-dioxidothiomorpholino)phenyl)-6-fluoropyridin-3-yl)-7-fluoro-3,4-dihydroisoquinolin-1(2H)-one]	11 to 100 nM
C[C@@H]1CN(c2ccc(-c3cc(-c4ccc5c(=O)[nH]cc(F)c5c4)c(N)nc3F)cc2)C[C@H](C)N1C [I-499, 6-(2-amino-6-fluoro-5-(4-((3R,5S)-3,4,5-trimethylpiperazin-1-yl)phenyl)pyridin-3-yl)-4-fluoroisoquinolin-1(2H)-one]	0.1 to 10 nM
Cc1nc2cc(-c3cc(-c4ccc(N5C[C@@H](C)N(C)[C@@H](C)C5)cc4)c(F)nc3N)ccc2c(=O)[nH]1 [I-500, 7-(2-amino-6-fluoro-5-(4-((3R,5S)-3,4,5-trimethylpiperazin-1-yl)phenyl)pyridin-3-yl)-2-methylquinazolin-4(3H)-one]	11 to 100 nM
Cc1nc2cc(-c3cc(-c4ccc(N5C[C@@H](C)N(C)[C@@H](C)C5)cc4)c(F)nc3N)cc(F)c2c(=O)[nH]1 [I-501, 7-(2-amino-6-fluoro-5-(4-((3R,5S)-3,4,5-trimethylpiperazin-1-yl)phenyl)pyridin-3-yl)-5-fluoro-2-methylquinazolin-4(3H)-one]	11 to 100 nM
Cc1c[nH]c(=O)c2ccc(-c3cc(-c4ccc(N5CCOCC5)c(CN(C)C)c4)c(F)nc3N)cc12 [I-502, 6-(2-amino-5-(3-((dimethylamino)methyl)-4-morpholinophenyl)-6-fluoropyridin-3-yl)-4-methylisoquinolin-1(2H)-one]	0.1 to 10 nM
Cc1cc2cc(-c3cc(-c4ccc(C5CCOCC5)c(CN(C)C)c4)c(F)nc3N)cc(F)c2c(=O)[nH]1 [I-504, 6-(2-amino-5-(3-((dimethylamino)methyl)-4-(tetrahydro-2H-pyran-4-yl)phenyl)-6-fluoropyridin-3-yl)-8-fluoro-3-methylisoquinolin-1(2H)-one]	11 to 100 nM
